Publication PMC4413184, “Seco-Taondiol, an Unusual Meroterpenoid from the Chilean Seaweed Stypopodium flabelliforme and Its Gastroprotective Effect in Mouse Model” (Marine Drugs, 2015)
“Also recorded” adds a separate entry of the source. Marks after values point to notes of the source that are not given here.

Columns and labels:
[1] = system: HCl/EtOH-induced gastric lesions in mice; experiment: HCl/EtOH-induced gastric lesions model in mice; format: in vivo; conditions: for gastroprotective activity (in words): HCl/EtOH-induced gastric lesions model in mice; for Lesion Index (mm) / % Lesion Reduction / inhibition of the appearance of gastric mucosal lesions: mice; for Lesion Index (mm) / % Lesion Reduction: oral, title: 30 mg/kg, method: meroditerpenoids 40 mg/kg, lansoprazole 30 mg/kg; for Lesion Index (mm): mean ± sd, n = 7; for % Lesion Reduction: versus control; for inhibition of the appearance of gastric mucosal lesions: oral administration at 40 mg/kg
Description: The gastroprotective activity of the compounds 4a–5a, and 9, 11 was assessed in the HCl/EtOH-induced lesion model as described previously. Mice were randomly distributed into groups of seven animals each and fasted for 12 h with free access to water prior to the experiment. Fifty min after oral administration of the meroditerpenoids (40 mg/kg), lansoprazole (30 mg/kg) or 1% Tween 80 (10 mL/kg), all groups were orally treated with 0.2 mL of a solution containing 0.3 M HCl/60% ethanol (HCl/EtOH) for gastric lesion induction. Animals were sacrificed 1 h after the administration of HCl/EtOH, and the stomachs were excised and inflated by injection of saline (1 mL). The ulcerated stomachs were fixed in 5% formalin for 30 min and opened along the greater curvature. […] The length (mm) of each lesion was measured, and the lesion index was expressed as the sum of the length of all lesions.

[2] = Cytotoxicity MTT assay, AGS cells; format: cell-based, human; conditions: human, AGS cells (human gastric epithelial cells), 48 h incubation
Description: (§1) The cytotoxic assay expressed as cell viability was conducted using MTT assay method. Cells at a density of 3 × 10^4 of MRC fibroblasts or AGS cells were plated in 96-well culture dishes. Compounds were assayed at concentrations ranging from 0 up to 500 μM. Incubated at 37 °C in humidified CO2 incubator for 24 h. After incubation, various concentrations in DMSO solvent of the compounds were added. Each compound was tested in quadruplicate and repeated three times. After 48 h incubation, assay was stop by adding MTT reagent (3-(4,5dimethylthiazol-2-yl)-2,5-diphenyltetrazolium bromide) and the incubation continue for next 4 h before the addition of MTT stop solution containing sodium dodecyl sulphate (SDS), the incubation continue for next 24 h. optical density was measured using microplate reader at 550 nm. IC50 value obtained from the plotted graph between percentage live cells compared to control.

[3] = system: human fibroblast (MRC fibroblasts); experiment: Cytotoxicity MTT assay, fibroblasts; format: cell-based; conditions: 48 h incubation
Description: as §1

[4] = system: HCl/EtOH-induced gastric lesions in indomethacin-pretreated mice; experiment: HCl/EtOH-induced gastric lesions in indomethacin-pretreated mice; format: in vivo; conditions: indomethacin 30 mg/kg s.c. 30 min before, 1a 35 mg/kg, 3a 40 mg/kg oral
Description: (§2) To investigate the involvement of endogenous prostaglandins in the gastroprotective effect of 1a and 3a, indomethacin s.c. (30 mg/kg, an inhibitor of the prostaglandin synthesis was dissolved in 5% NaHCO3) was injected 30 min before administration of 1a, 3a or vehicle (IND-treated). Fifty min after oral administration of 1a (35 mg/kg), 3a (40 mg/kg) or vehicle, all groups were orally treated with 0.2 mL of a solution containing 0.3 M HCl/60% ethanol (HCl/EtOH) for gastric lesion induction. Animals were sacrificed 1 h after the administration of HCl/EtOH, and the stomachs were excised and inflated by injection of saline (1 mL). The gastric mucosal lesions were induced and the length of gastric lesions was measured as described above.

[5] = system: HCl/EtOH-induced gastric lesions in NEM-pretreated mice; experiment: HCl/EtOH-induced gastric lesions in N-ethylmaleimide (NEM)-pretreated mice; format: in vivo; conditions: NEM 10 mg/kg s.c. 30 min before, 1a 35 mg/kg, 3a 40 mg/kg oral
Description: as §2, with “sulfhydryl compounds (SHs)” for “endogenous prostaglandins”, “NEM” for “indomethacin”, “(10” for “(30”, “SH blocker” for “inhibitor of the prostaglandin synthesis”, “saline)” for “5% NaHCO3)”, “(NEM-treated).” for “(IND-treated).”

[6] = system: HCl/EtOH-induced gastric lesions in L-NAME-pretreated mice; experiment: HCl/EtOH-induced gastric lesions in L-NAME-pretreated mice; format: in vivo; conditions: L-NAME 70 mg/kg i.p. 30 min before, 1a 35 mg/kg, 3a 40 mg/kg oral
Description: as §2, with “nitric oxide (NO)” for “prostaglandins”, “L-NAME i.p. (70” for “indomethacin s.c. (30”, “NO synthase” for “the prostaglandin synthesis”, “saline)” for “5% NaHCO3)”, “(L-NAME-treated).” for “(IND-treated).”

[7] = system: HCl/EtOH-induced gastric lesions in RR-pretreated mice; experiment: HCl/EtOH-induced gastric lesions in ruthenium red (RR)-pretreated mice; format: in vivo; conditions: RR 3.5 mg/kg s.c. 30 min before; 1a 35 mg/kg, 3a 40 mg/kg oral
Description: as §2, with “vanilloid receptor” for “endogenous prostaglandins”, “RR” for “indomethacin”, “(3.5” for “(30”, “a vanilloid receptor antagonist” for “an inhibitor of the prostaglandin synthesis”, “saline)” for “5% NaHCO3)”, “(RR-treated).” for “(IND-treated).”

[8] = system: HCl/EtOH-induced gastric lesions in mice; set-up: method as in PMID 21922901; conditions: cited from earlier work
[9] = system: human epithelial gastric cells (AGS); experiment: Cytotoxicity MTT assay, AGS cells; format: cell-based; conditions: 48 h incubation
Description: as §1

[10] = Cytotoxicity MTT assay, fibroblasts; format: cell-based, human; conditions: human, MRC fibroblasts, 48 h incubation
Description: as §1

Structure (SMILES) | gastroprotective activity (in words) [1] | Lesion Index (mm) [1] | % Lesion Reduction [1] | IC50 at 48 h [2] | IC50 at 48 h [10] | other results
Cc1cc(O)cc2c1OC1(C)CCC3C(C)(CCC4C(C)(C)C(O)CCC43C)C1C2 (stereo not drawn) [Compound 3a, epitaondiol] | exhibited gastroprotective activity | 16.7 ± 3.1 mm | 60 * % | 29 ± 3 µM |  | IC50 [3]: 19 ± 4 µM; effect of indomethacin pre-treatment on the gastroprotective effect [4]: attenuated; effect of indomethacin pre-treatment on the gastroprotective effect ([4]; listed as epitaondiol): reversed significantly; effect of NEM pre-treatment on the gastroprotective effect [5]: reduced; effect of NEM pre-treatment on the gastroprotective effect ([5]; listed as epitaondiol): reversed significantly; effect of L-NAME pre-treatment on the gastroprotective effect [6]: reduced; effect of L-NAME pre-treatment on the gastroprotective effect ([6]; listed as epitaondiol): reversed significantly; effect of ruthenium red pre-treatment on the gastroprotective effect [7]: did not reduce; gastroprotective activity ED50 [8]: 40 mg/kg
Cc1cc(O)cc2c1OC1(C)CCC3C(C)(CCC4C(C)(C)C(O)CCC43C)C1C2 (stereo not drawn) [Compound 5a, isoepitaondiol] | gastroprotective activity in similar way than positive control | 9.1 ± 3.6 mm | 78 * % |  |  | gastroprotective activity (in words) ([1]; listed as isoepitaondiol): exhibited gastroprotective activity; inhibition of the appearance of gastric mucosal lesions [1]: 78%; IC50 [9]: 42 ± 2 µM; IC50 [3]: 65 ± 3 µM
CC(C)=CCC/C(C)=C/CC/C(C)=C/CC[C@]1(C)C=Cc2cc(O)cc(C)c2O1 [Compound 1a, sargaol] | exhibited gastroprotective activity | 20.0 ± 3.6 mm | 52 * % | 18 ± 4 µM | 12 ± 3 µM | effect of indomethacin pre-treatment on the gastroprotective effect [4]: reversed significantly; effect of indomethacin pre-treatment on the gastroprotective effect ([4]; listed as sargaol): attenuated; effect of NEM pre-treatment on the gastroprotective effect [5]: reduced; also recorded: reversed significantly; effect of NEM pre-treatment on the gastroprotective effect ([5]; listed as sargaol): attenuated; effect of L-NAME pre-treatment on the gastroprotective effect [6]: has not attenuated; effect of ruthenium red pre-treatment on the gastroprotective effect [7]: did not reduce; gastroprotective activity ED50 [8]: 35 mg/kg
Cc1cc(O)cc2c1OC1(C2)C(C)CCC2C3(C)CCC(O)C(C)(C)C3CCC21C (stereo not drawn) [Compound 4a, stypodiol] | gastroprotective activity in similar way than positive control | 13.0 ± 4.0 mm | 69 * % | 153 ± 9 µM | 215 ± 8 µM | gastroprotective activity (in words) ([1]; listed as stypodiol): exhibited gastroprotective activity; inhibition of the appearance of gastric mucosal lesions [1]: 69%
COc1c(C)cc(OC(C)=O)cc1CC1C(C)CCC2C3(C)CCC(OC(C)=O)C(C)(C)C3=CCC12C (stereo not drawn) [Compound 7, O,C(3)-seco-9-ene-6β-taondiol diacetate] |  |  |  | 85 ± 5 µM | 102 ± 6 µM | 
CC(=O)Oc1c(Cl)c(C)c2c(c1OC(C)=O)CC1(O2)C(C)CCC2C3(C)CCC(OC(C)=O)C(C)(C)C3CCC21C (stereo not drawn) [Compound 8, 4'-chlorostypotriol triacetate] |  |  |  | 11 ± 1 µM | 12 ± 1 µM | 
Cc1c(OCC(F)(F)F)ccnc1C[S+]([O-])c1nc2ccccc2[nH]1 (stereo not drawn) [Lansoprazole, lansoprazole, reference compound] |  | 14.1 ± 3.6 mm | 66 * % | 198 ± 5 µM | 392 ± 6 µM | 
CC(=O)Oc1cc(C)c2c(c1OC(C)=O)CC1(O2)C(C)CCC2C3(C)CCC(=O)C(C)(C)C3CCC21C (stereo not drawn) [Compound 11, 14-ketostypodiol diacetate] | inactive | 37.9 ± 7.3 mm | 9% | 65 ± 4 µM | 102 ± 6 µM | 
CC(=O)Oc1cc(C)c2c(c1OC(C)=O)CC1(O2)C(C)CCC2C3(C)CCC(OC(C)=O)C(C)(C)C3CCC21C (stereo not drawn) [Compound 9, stypotriol triacetate] | inactive | 36.4 ± 5.2 mm | 12% | 14 ± 3 µM | 21 ± 5 µM | 
